Results: patent publication US7517849B1, “Inhibition of ABC transporters by transmembrane domain analogs” (priority 1999, dated 2009)
Read-outs that look alike come from different tables or passages of the source. Where no end group is shown, it is not given here.

Experiments:
[1] = test system: Human colon cancer cells HCT15; assay: Sensitisation of HCT15 cells to adriamycin, sulforhodamine B toxicity assay; format: cell-based; settings: HCT-15, 96 h, four days, without analog
[2] = molecular target: T1, human P-gp (Homo sapiens, UniProt P08183); assay: Fluorogenic substrate (rhodamine 123) accumulation/efflux assay by FACS in P-gp-expressing KB 8-5 cells; format: cell-based
T1 construct: P-gp-expressing KB 8-5 cells were trypsinized; endogenous in cells; host or cells: KB 8-5 cells
T1 sequence (P08183 whole entry): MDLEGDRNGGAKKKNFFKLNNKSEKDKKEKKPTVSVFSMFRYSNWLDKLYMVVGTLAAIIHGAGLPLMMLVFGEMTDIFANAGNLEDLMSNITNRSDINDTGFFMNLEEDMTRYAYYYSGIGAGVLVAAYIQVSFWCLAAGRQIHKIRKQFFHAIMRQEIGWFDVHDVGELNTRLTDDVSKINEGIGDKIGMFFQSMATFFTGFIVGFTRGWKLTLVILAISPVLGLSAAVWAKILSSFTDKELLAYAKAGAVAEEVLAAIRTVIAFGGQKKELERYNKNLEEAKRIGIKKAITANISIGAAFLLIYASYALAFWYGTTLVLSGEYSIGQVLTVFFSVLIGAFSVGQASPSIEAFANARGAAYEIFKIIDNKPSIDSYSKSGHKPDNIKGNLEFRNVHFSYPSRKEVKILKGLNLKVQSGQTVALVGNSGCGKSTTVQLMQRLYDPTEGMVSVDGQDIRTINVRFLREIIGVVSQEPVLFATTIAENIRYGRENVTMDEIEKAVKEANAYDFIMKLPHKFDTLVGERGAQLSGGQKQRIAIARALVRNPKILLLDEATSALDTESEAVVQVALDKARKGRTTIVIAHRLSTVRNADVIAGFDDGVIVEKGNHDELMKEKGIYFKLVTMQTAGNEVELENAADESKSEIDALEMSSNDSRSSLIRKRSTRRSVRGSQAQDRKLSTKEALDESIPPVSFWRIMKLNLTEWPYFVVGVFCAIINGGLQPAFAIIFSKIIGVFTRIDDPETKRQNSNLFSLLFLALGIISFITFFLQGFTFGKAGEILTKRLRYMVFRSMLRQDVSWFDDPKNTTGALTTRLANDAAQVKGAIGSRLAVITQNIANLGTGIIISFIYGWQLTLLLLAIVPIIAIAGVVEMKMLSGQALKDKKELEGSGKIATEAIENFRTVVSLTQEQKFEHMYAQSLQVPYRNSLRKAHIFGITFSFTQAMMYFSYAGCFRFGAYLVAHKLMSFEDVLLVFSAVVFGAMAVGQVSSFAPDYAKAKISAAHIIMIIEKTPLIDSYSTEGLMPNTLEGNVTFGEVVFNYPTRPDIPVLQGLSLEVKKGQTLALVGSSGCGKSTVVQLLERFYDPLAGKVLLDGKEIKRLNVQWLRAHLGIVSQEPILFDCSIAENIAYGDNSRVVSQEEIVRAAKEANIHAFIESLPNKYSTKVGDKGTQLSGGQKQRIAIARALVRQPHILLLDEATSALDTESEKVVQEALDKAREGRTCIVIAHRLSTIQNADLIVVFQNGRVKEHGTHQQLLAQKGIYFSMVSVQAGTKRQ
Protocol: The activity of the antagonists was tested in KB 8-5 cells which express human P-gp (described in Hrycyna et al.; Biochemistry 37:13660-73 (1998)). Analyses of P-gp transport activity were conducted by fluorogenic substrate accumulation assays utilizing fluorescence activated cell sorting (FACS) analysis, as described in Dey, S. et al., Biochemistry 38:6630-9 (1999). […] In initial screens, […] stock solutions of TM peptides in DMSO were diluted in medium to give 10-50 μM solutions. Active compounds were then tested at progressively lower concentrations.
P-gp-expressing KB 8-5 cells were trypsinized, washed with 15 mL Iscove's modified Dulbecco's medium (IMEM), supplemented with 5% fetal bovine serum (FBS), and resuspended in the same medium. […] After the incubation, the cells were pelleted by centrifugation at 200×g and incubated further in their respective rhodamine-free media (+/−TM peptide) for an additional 45 min at 37° C. in the dark. Cells were then pelleted and resuspended in 400 μL of phosphate-buffered saline without Ca+2 or Mg+2 and immediately analyzed by fluorescence activated cell sorting (FACS).
Incubations of KB 8-5 cells were carried out as described in the previous Example, except that varying concentrations of the analog called TM 6 (see Example 4, supra) were used as the TM polypeptide.

[3] = molecular target: human P-glycoprotein (product of MDR1 gene) (human, UniProt P08183 1-1280); assay: cell-based or functional assay
human P-glycoprotein (product of MDR1 gene), sequence (P08183 whole entry S893A): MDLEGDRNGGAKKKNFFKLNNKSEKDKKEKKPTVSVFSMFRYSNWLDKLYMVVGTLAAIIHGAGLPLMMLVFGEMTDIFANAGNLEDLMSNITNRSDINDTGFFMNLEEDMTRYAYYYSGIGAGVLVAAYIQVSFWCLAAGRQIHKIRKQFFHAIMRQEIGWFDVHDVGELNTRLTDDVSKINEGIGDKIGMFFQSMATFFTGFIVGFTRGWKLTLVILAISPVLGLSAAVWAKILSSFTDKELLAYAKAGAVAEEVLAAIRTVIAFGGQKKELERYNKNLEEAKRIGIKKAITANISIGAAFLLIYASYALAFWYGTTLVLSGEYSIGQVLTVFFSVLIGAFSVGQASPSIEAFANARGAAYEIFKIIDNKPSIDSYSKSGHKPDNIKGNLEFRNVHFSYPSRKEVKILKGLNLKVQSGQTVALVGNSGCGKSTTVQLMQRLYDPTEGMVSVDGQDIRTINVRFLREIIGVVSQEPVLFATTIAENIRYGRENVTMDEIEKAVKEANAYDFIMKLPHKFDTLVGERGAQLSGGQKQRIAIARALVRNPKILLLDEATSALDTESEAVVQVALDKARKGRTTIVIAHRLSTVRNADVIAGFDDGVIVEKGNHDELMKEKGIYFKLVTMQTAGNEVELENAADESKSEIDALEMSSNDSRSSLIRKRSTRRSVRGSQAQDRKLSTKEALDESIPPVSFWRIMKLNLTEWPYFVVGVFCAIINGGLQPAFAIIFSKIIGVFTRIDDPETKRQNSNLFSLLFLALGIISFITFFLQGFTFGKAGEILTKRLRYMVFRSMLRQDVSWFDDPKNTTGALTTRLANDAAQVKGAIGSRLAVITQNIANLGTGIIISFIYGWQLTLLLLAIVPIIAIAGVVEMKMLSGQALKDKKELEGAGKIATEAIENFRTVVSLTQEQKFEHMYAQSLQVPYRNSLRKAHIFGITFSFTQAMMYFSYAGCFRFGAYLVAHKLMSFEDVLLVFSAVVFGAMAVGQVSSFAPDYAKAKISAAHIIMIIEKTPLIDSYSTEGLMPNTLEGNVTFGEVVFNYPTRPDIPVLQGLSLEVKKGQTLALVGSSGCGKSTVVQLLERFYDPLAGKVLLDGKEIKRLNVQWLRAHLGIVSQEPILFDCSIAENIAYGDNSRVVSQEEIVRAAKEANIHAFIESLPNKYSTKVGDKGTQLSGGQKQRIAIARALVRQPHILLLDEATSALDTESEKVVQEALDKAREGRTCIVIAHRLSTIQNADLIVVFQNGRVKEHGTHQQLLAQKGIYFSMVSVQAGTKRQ

COc1cccc2c1C(=O)c1c(O)c3c(c(O)c1C2=O)C[C@@](O)(C(=O)CO)C[C@@H]3O[C@H]1C[C@H](N)[C@H](O)[C@H](C)O1 [adriamycin]
IC50 [1]: 150 ± 10 nM

ISIGAAFLLIYASYALAFWYGTTDD-OH [TM5 Analog 1]
activity as inhibitor of the MDR1 ABC transporter (in words) [2]: active

DSGEYSIGQVLTVFFSVLIGAFSV [TM peptide 6]
inhibition of rhodamine efflux ([2]; 5 μM TM peptide, KB 8-5 cells, 0.5 μg/mL rhodamine 123, FACS): inhibited rhodamine efflux | activity as inhibitor of the MDR1 ABC transporter (in words) ([2]; cells expressing MDR1, efflux of substrates): most active | inhibitory power compared with cyclosporin A ([2]; positive control 5 μM cyclosporin A, KB 8-5 cells): not as powerful an inhibitor as cyclosporin A | dose/response inhibition of P-gp ([2]; varying concentrations, KB 8-5 cells, rhodamine 123 efflux): inhibited P-gp in a dose dependent manner

LLIYASYALAFWYGTTLVLSGEGSSG-OH [TM5 analog]
activity as inhibitor of the MDR1 ABC transporter (in words) [2]: strongest inhibitor of the MDR1 ABC transporter yet tested | inhibition of rhodamine 123 efflux compared with 5 micromolar cyclosporin [2]: same degree of inhibition of rhodamine 123 efflux from MDR1 expressing cells as 5 micromolar cyclosporin

DSGEYSIGQVLTVFFSVLIGAFSV [TM6 analog of MDR1 (synthetic peptide), Analog 1]
IC50 of adriamycin (sulforhodamine B toxicity assay, HCT15 cells) in the presence of 1 µM TM6 [3]: 80 nM
